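Growth conditions: 96-well plates. Treatment: test compound, 48 hours, 5 concentrations. Analysis: linear interpolation between bracketing concentrations; unreached endpoints set to highest concentration. Here, GI50 denotes the concentration required for 50% inhibition of growth. At the TGI there is no net growth.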
Experiments:
Test in all cases: inhibition of tumour cell growth, NCI panel, 48 h
[1] = test system: A549 NSCLC
[2] = test system: MDA-MB-231 breast
[3] = test system: TK-10 renal
[4] = test system: RPMI-8226 leukemia
[5] = test system: SK-MEL-28 melanoma
[6] = test system: HS 578T breast
[7] = test system: SNB-75 CNS
[8] = test system: NCI-H23 lung
[9] = test system: M14 melanoma
[10] = test system: MDA-MB-468 breast
[11] = test system: SK-MEL-2 melanoma
[12] = test system: SR leukemia
[13] = test system: NCI-H522 lung
[14] = test system: OVCAR-8 ovarian
[15] = test system: CAKI-1 renal
[16] = test system: BT-549 breast
[17] = test system: SF-268 CNS
[18] = test system: OVCAR-4 ovarian
[19] = test system: U251 CNS
[20] = test system: K-562 leukemia
[21] = test system: HL-60(TB) leukemia
[22] = test system: CCRF-CEM leukemia
[23] = test system: MDA-MB-435
[24] = test system: LOX IMVI melanoma
[25] = test system: A498 renal
[26] = test system: HT29 colon
[27] = test system: HCC-2998 colon
[28] = test system: SK-OV-3 ovarian
[29] = test system: UO-31 renal
[30] = test system: KM12 colon
[31] = test system: 786-0 renal
[32] = test system: SW-620 colon
[33] = test system: NCI/ADR-RES ovarian
[34] = test system: OVCAR-5 ovarian
[35] = test system: PC-3 prostate
[36] = test system: T-47D breast
[37] = test system: EKVX NSCLC
[38] = test system: SF-295 CNS
[39] = test system: UACC-257 melanoma
[40] = test system: HCT-116 colon
[41] = test system: NCI-H226 lung
[42] = test system: OVCAR-3 ovarian
[43] = test system: SK-MEL-5 melanoma
[44] = test system: NCI-H460 lung
[45] = test system: SF-539 CNS
[46] = test system: SNB-19 CNS
[47] = test system: SN12C renal
[48] = test system: DU-145 prostate
[49] = test system: UACC-62 melanoma
[50] = test system: HCT-15 colon
[51] = test system: IGROV1 ovarian
[52] = test system: MOLT-4 leukemia
[53] = test system: COLO 205 colon
[54] = test system: RXF 393 renal
[55] = test system: HOP-62 NSCLC
[56] = test system: ACHN renal
[57] = test system: MALME-3M melanoma
[58] = test system: MCF7 breast
[59] = test system: HOP-92 NSCLC

Work on `CC1(C)CC[C@]2(C(=O)O)CC[C@]3(C)C(=CCC4[C@@]5(C)C[C@@H](O)[C@@H]6OC(c7ccccc7Br)OC[C@@]6(C)C5CC[C@]43C)C2C1` (stereo partly drawn) yielded a GI50 [1] of 2.11 µM, a TGI [1] of 50.1 µM and a GI50 [2] of 4.01 µM. For the same compound, the TGI [2] was 21.9 µM, the GI50 [3] was 4.55 µM and the TGI [3] was over 100 µM. For the same compound, the GI50 [4] was 2.66 µM, the TGI [4] was 71.8 µM and the GI50 [5] was 4.69 µM. The TGI [5] was 37.2 µM, the GI50 [6] was 2.82 µM and the TGI [6] was 14.9 µM. It also gave a GI50 [7] of 2.44 µM, a TGI [7] of over 100 µM and a GI50 [8] of 3.72 µM. For the same compound, the TGI [8] was 43.7 µM, the GI50 [9] was 3.88 µM and the TGI [9] was 17.7 µM. For the same compound, the GI50 [10] was 2.83 µM, the TGI [10] was 20.7 µM and the GI50 [11] was 4.03 µM. The TGI [11] was 20.7 µM, the GI50 [12] was 4.15 µM and the TGI [12] was over 100 µM. For the same compound, the GI50 [13] was 3.45 µM, the TGI [13] was 78.4 µM and the GI50 [14] was 3.48 µM. For the same compound, the TGI [14] was over 100 µM, the GI50 [15] was 3.16 µM and the TGI [15] was over 100 µM. It also gave a GI50 [16] of 3.11 µM, a TGI [16] of 13.1 µM and a GI50 [17] of 3.45 µM. For the same compound, the TGI [17] was over 100 µM, the GI50 [18] was 3.61 µM and the TGI [18] was over 100 µM. It also gave a GI50 [19] of 3.08 µM, a TGI [19] of 14.3 µM and a GI50 [20] of 2.68 µM. It also gave a TGI [20] of over 100 µM, a GI50 [21] of 2.57 µM and a TGI [21] of 9.75 µM. The GI50 [22] was 3.26 µM, the TGI [22] was 35.4 µM and the GI50 [23] was 3.95 µM. The TGI [23] was 23.5 µM, the GI50 [24] was 3.49 µM and the TGI [24] was 13.9 µM. The GI50 [25] was 3.28 µM, the TGI [25] was 12.6 µM and the GI50 [26] was 3.42 µM. For the same compound, the TGI [26] was 16.7 µM, the GI50 [27] was 3.63 µM and the TGI [27] was 20.8 µM. For the same compound, the GI50 [28] was 3.8 µM, the TGI [28] was 44.1 µM and the GI50 [29] was 2.68 µM. For the same compound, the TGI [29] was 12.4 µM, the GI50 [30] was 3.91 µM and the TGI [30] was 26.2 µM. The GI50 [31] was 3.61 µM, the TGI [31] was 15.3 µM and the GI50 [32] was 3.43 µM. The TGI [32] was 30.9 µM, the GI50 [33] was 3.17 µM and the TGI [33] was over 100 µM. The GI50 [34] was 4.08 µM, the TGI [34] was 25 µM and the GI50 [35] was 3.99 µM. It also gave a TGI [35] of over 100 µM, a GI50 [36] of 3.46 µM and a TGI [36] of over 100 µM. The GI50 [37] was 2.68 µM, the TGI [37] was 36.5 µM and the GI50 [38] was 2.79 µM. For the same compound, the TGI [38] was 18.8 µM, the GI50 [39] was 4.12 µM and the TGI [39] was 30.9 µM. For the same compound, the GI50 [40] was 2.65 µM, the TGI [40] was 11.1 µM and the GI50 [41] was 3.52 µM. For the same compound, the TGI [41] was 34.9 µM, the GI50 [42] was 2.99 µM and the TGI [42] was 12.7 µM. For the same compound, the GI50 [43] was 3.6 µM, the TGI [43] was 13.9 µM and the GI50 [44] was 2.51 µM. For the same compound, the TGI [44] was 9.77 µM, the GI50 [45] was 3.59 µM and the TGI [45] was 12.8 µM. It also gave a GI50 [46] of 3.82 µM, a TGI [46] of over 100 µM and a GI50 [47] of 3.14 µM. It also gave a TGI [47] of 17.6 µM, a GI50 [48] of 3.71 µM and a TGI [48] of over 100 µM. For the same compound, the GI50 [49] was 4.8 µM, the TGI [49] was 24.8 µM and the GI50 [50] was 2.21 µM. The TGI [50] was 12.9 µM, the GI50 [51] was 4.53 µM and the TGI [51] was 30.1 µM. For the same compound, the GI50 [52] was 2.67 µM, the TGI [52] was 23.4 µM and the GI50 [53] was 1.99 µM. The TGI [53] was 4.89 µM, the GI50 [54] was 4.37 µM and the TGI [54] was 8.95 µM. The GI50 [55] was 3.9 µM, the TGI [55] was 22.4 µM and the GI50 [56] was 2.53 µM. For the same compound, the TGI [56] was 18.7 µM, the GI50 [57] was 3.78 µM and the TGI [57] was 19.3 µM. The GI50 [58] was 3.29 µM, the TGI [58] was over 100 µM and the GI50 [59] was 4.72 µM. The TGI [59] was 37.1 µM.

From PubChem BioAssay (NCI)
